Values of other authors as cited in US20240000717A1, “DRY POWDER ANTIVIRAL COMPOSITIONS AND THEIR USE FOR TREATING VIRAL INFECTION” (priority 2020, published 2024).

Test system: hospitalized COVID-19 patients
Conditions: Pan et al., MedRxiv 2020

For `CCC(CC)COC(=O)[C@H](C)N[P@](=O)(OC[C@H]1O[C@@](C#N)(c2ccc3c(N)ncnn23)[C@H](O)[C@@H]1O)Oc1ccccc1` [remdesivir, 2-ethylbutyl ((S)-(((2R,3S,4R,5R)-5-(4-aminopyrrolo[2,1-f][1,2,4]triazin-7-yl)-5-cyano-3,4-dihydroxytetrahydrofuran-2-yl)methoxy)(phenoxy)phosphoryl)-L-alaninate], the “effect on 28-day mortality” value is listed as “little or no effect”.
